Entries after “also recorded” stand apart in the source; their conditions may differ.
Test system: rat model of focal cerebral ischemia (tMCAO)
Assay: Neurological function after transient middle cerebral artery occlusion (Bederson, NDS, EBST)
Assay type: in vivo
Settings: for Neurological Deficit Score (NDS), Dunn's test: 135 mg/kg/d p.o.
Procedure: Evaluating the effect of Sigma receptor agonists in a rat model of focal cerebral ischemia. Rats were anesthetized with 5% isoflurane in oxygen and maintained at ˜2% through a nosecone. Core temperature was maintained with an infrared heating pad controlled by a rectal probe. Transient middle cerebral artery occlusion (tMCAO) was performed as previously described (Oppong-Gyebi et al., 2022). Briefly, a midline incision was made from the neck to the sternum. The left common carotid artery and bifurcation was mobilized, and a silicon-coated suture (Doccol, Sharon MA) was inserted through the external carotid artery into the internal carotid artery to reach the origin of the MCA at the base of the brain. The incision was closed, and rats were allowed to awaken so that successful occlusion could be assessed. Rats not displaying hemiparesis immediately post-surgery were excluded from the study. After 85-90 minutes occlusion, rats were anesthetized, and the suture was withdrawn to allow reperfusion. Rats were injected subcutaneously with 5 ml saline bilaterally to provide hydration during recovery. On the day following tMCAO, rats were assessed for persistent signs of stroke.
Only rats displaying hemiparesis immediately post-surgery were included in the study. Rats with a Bederson score of 0 or <50% contralateral bias on the elevated body swing test (EBST) (Borlongan and Sanberg, 1995) on Day 1 after tMCAO were excluded from the study. Animals that became moribund or died within 24 hours of tMCAO were excluded from the study.
Two days before tMCAO rats were trained to lick 5% sucrose from a 1 ml syringe. After behavioral assessment on Day 1 after tMCAO, rats were randomly assigned to 4 groups in a blinded fashion. Groups included sucrose Vehicle, or 45, 68 or 135 mg/kg oxeladin. Oxeladin was prepared in 5% sucrose and provided to rats from the end of a 1 ml syringe. Starting 48 hours after stroke, rats were administered treatments daily from day 3 to day 14. On days 3-14 rats were injected i.p. with 50 mg/kg bromodeoxyuridine (BrdU; Fisher Bioreagents). At the conclusion of the study, rats were euthanized under deep isoflurane anesthesia. Rats were transcardially perfused with cold saline and either decapitated for brain collection and flash freezing of brain tissue or transcardially perfused with 4% formaldehyde for immunohistochemical studies.
On days 1, 3, 7, and 14 after tMCAO, rats underwent a series of behavioral tests by a treatment blinded observer. All tests were performed in a room dimly lit with red light. Rats were assessed by the Bederson test (Bederson et al., 1986), and an 11-point Neurological Deficit test as previously described (Oppong-Gyebi et al., 2022). The elevated body swing test (EBST) was performed in an open field with 30 seconds between each of 20 lifts by the base of the tail (Borlongan and Sanberg, 1995). The EBST was scored as percent of nose swing to the contralateral side to the tMCAO.
The observer scored the rats using the Bederson test, which evaluates global neurological function and grades rodents on a scale of 0-5. Grade 0 (no defects) is assigned if animals extend both forelimbs toward the floor when suspended above the floor. Grade 1 (mild defects) is given when animals show forelimb flexion without any other abnormality. Grade 2 (modest defects) is given when animals display forelimb flexion and decreased resistance to lateral push toward the paretic side. Animals further showing circling behavior are scored Grade 3 (severe defects).
The observer also scored the rats using the Elevated Body Swing Test (EBST) in which rats lifted by the tail and held vertically swing their heads to the left or to the right. Whereas healthy animals on a group level are likely to swing approximately 50% to either side, animals with a unilateral cerebral lesion, e.g. ischemic stroke, should present with a dominant/biased swing direction.

[1] = 68 mg/kg/d p.o. starting 48 hours after tMCAO, days 7 and 14

CCN(CC)CCOCCOC(=O)C(CC)(CC)c1ccccc1 [Oxeladin]
Bederson score vs Vehicle [1]: significantly improved | Elevated Body Swing Test (EBST) vs Vehicle [1]: significantly improved | Bederson score vs Vehicle (135 mg/kg/d p.o. starting 48 hours after tMCAO, days 3, 7 and 14): significant improvements; also recorded: significantly improved | Neurological Deficit Score (NDS) vs Vehicle (135 mg/kg/d p.o. starting 48 hours after tMCAO, days 3 and 7): significantly improved | Elevated Body Swing Test (EBST) vs Vehicle (135 mg/kg/d p.o. starting 48 hours after tMCAO, days 7 and 14): not 135 mg/kg showed improvement | Neurological Deficit Score (NDS), Dunn's test (day 3 (P=0.072)): trend for improvement | Neurological Deficit Score (NDS), Dunn's test (day 7 (P=0.028)): significant improvements | functional recovery after tMCAO (overall conclusion, p.o. dosing): improves functional recovery
